Series [1] in a line: Foaming capability of individual surfactant components admixed with water and agitated. Particulars: for Foaming ability: numerical score, 1 representing an excellent foamer and 5 a poor foamer. The class given is physicochemical. How it is done:
The foaming ability was determined by a numerical score, 1 representing an excellent foamer and 5 representing a poor foamer

The subject of series [2] is EpiOral ORL-200 model. Description: EpiOral in Vitro Irritation Test Method (EpiOral ORL-200 model). Particulars: for ET-50 Time: time at which 50% of cells are viable, test terminated at 240 minutes.
Method: (§1) To evaluate the potential irritancy of the dentifrice formulae, surfactant components were diluted in water and tested using an EpiOral in Vitro Irritation Test Method, in particular the EpiOral ORL-200 model, a known model for testing irritant potential of dentifrice components.
(§2) In the EpiOral test, the dentifrice components were tested to determine the parameter “ET-50” which represents the time at which 50% of cells are viable: the higher the ET-50 time then the less irritating the material.
(§3) Dentifrice compositions incorporating different surfactant systems were also subjected to the EpiOral test.
Series [3] relates to EpiOral ORL-200 model.
Method: as §1, §2, §3

Read-outs that look alike come from different tables or passages of the source. Where only a bound is given, the exact number is not on record here.

On to `CCCCCCCCCCCCOS(=O)(=O)[O-].[Na+]` [Sodium lauryl sulfate, sodium lauryl sulfate], for which the Foaming ability in series [1] is on record as 1. Further, the “ET-50 Time” value in series [2] (surfactant component 1 wt % in water) was 115.4 min; in series [2] (surfactant component 2 wt % in water) it was 48.3 min. Also, the potential irritancy entry in series [2] (surfactant components in water at different concentrations, in words) is listed as “high”.
Regarding lauryl glucoside, in series [1] (individual surfactant components, in words), the “foaming ability as compared to sodium lauryl sulfate” value is “significantly poorer”. This compound also gave a Foaming ability in series [1] of 3. Besides, in series [3], the “ET-50 Time” value is greater than 240 min and the potential irritancy result is reported as “very low”.
